Source: patent US20260245700A1, “METHOD FOR GIVING A RECOMMENDATION ON THE DIETARY ENERGY OF A POULTRY DIET” (Evonik Operations GmbH, priority 2023, published 2026)
Like-named read-outs stand apart in the source and are kept apart here.

How the values were obtained:
broilers [1] = details: linear regression, relative scale, control = 100%, cited from earlier work
broilers [2] = details: EFSA 2009; Tossenberger et al. 2016; cited from earlier work
broilers [3] = details: reduced dietary energy content plus GAA added to the feed; cited from earlier work
broilers [4] = assay: Trials in which GAA compensates dietary energy reduction (energy-sparing value); format: in vivo
Excerpt: Reduction of dietary energy content and adding GAA to the feed restored broiler performance, which supports this conclusion (Malins et al., 2017; Mousavi S. N., Afsar A., Lotfollahian H. (2013) Effects of guanidinoacetic acid supplementation to broiler diets with varying energy contents, Journal of Applied Poultry Research, Volume 22, Issue 1, 2013, Pages 47-54, ISSN 1056-6171, https://doi.org/10.3382/japr.2012-00575; Heger, J., J. Zelenka, V. Machander, C. Cruz, M. Lestak, and D. Hampel. (2014) “Effects of Guanidinoacetic Acid Supplementation to Broiler Diets with Varying Energy Content.” Acta Universitatis Agriculturae Silviculturae Mendelianae Brunensis 62: 477-485. doi:10.11118/actaun201462030477; Abudabos, A. M., F. Saleh, A. Lemme, and H. A. H. Zakaria (2014) “The Relationship between Guanidino Acetic Acid and Metabolisable Energy Level of Diets on Performance of Broiler Chickens.” Italian Journal of Animal Science 13: 548-556. doi:10.4081/ijas.2014.3269).
The energy reduction level as well as the GAA supplementation rate was not always the same in trails in which GAA was used to compensate for energy reduction. In most trials dietary energy level of a standard diet was reduced by 50 kcal/kg feed and 0.06% GAA was supplemented to maintain bird performance. This would be equivalent to an energy-sparing value of 83.333 kcal/kg of GAA. However, considering all 20 identified independent trials in which GAA was used to compensate for dietary energy reduction, a wide range of energy-sparing values from 41.667 to 568.333 kcal/kg was tested. […] It can be predicted that an energy-sparing value of 163.889 kcal/kg GAA maintains BWG of the birds, whereas there is still a small improvement for FCR. For FCR, it was found out that even an energy-sparing value of 197.222 kcal/kg GAA maintains performance.

[5] = Vranes et al. 2017; relatively stable during pelleting or extruding; cited from earlier work
broilers [6] = details: GAA supplemented in broiler diets, compared to non-supplemented diets, asymptotic; cited from earlier work
broiler chickens = details: cited from earlier work

## N=C(N)NCC(=O)O [GAA, Guanidinoacetic acid]
Broilers [1]; GAA dose 0.6 g/kg
  FCR improvement: 4.5 points
Broilers [1]; GAA dose 1.2 g/kg
  FCR improvement: 8.8 points
Broilers [2]
  bioavailability: high
Broilers [3]
  broiler performance: restored
Broilers [4]; from 20 independent trials
  energy-sparing value that maintains performance for FCR: 197.222 kcal/kg GAA
Broilers [4]; overall, 20 independent trials
  energy GAA can compensate (energy-sparing value): more than 83.333 kcal/kg
Broilers [4]; predicted from 20 independent trials, still a small improvement for FCR
  energy-sparing value that maintains BWG: 163.889 kcal/kg GAA
[5]
  thermal stability: high
Broilers [6]
  increase of muscle CREA, maximum: ≤ 29%
Broiler chickens; 1.7 g/kg L-ARG compensated by 1.2 g/kg GAA (Dilger et al. 2013)
  replacement efficiency: 142%
Broiler chickens; birds fed ARG-deficient diets (DeGroot et al. 2018)
  circulatory ARG levels: increased
Broiler chickens; by 1.2 g/kg GAA (Dilger et al. 2013)
  L-ARG compensated: 1.7 g/kg
Broiler chickens; very ARG-deficient diet, at 1.2 g/kg supplemental GAA (Dilger et al. 2013)
  supplemental L-ARG needed to reach a given feed conversion ratio: 2.1 g/kg
Broiler chickens; very deficient ARG diets (Dilger et al. 2013)
  ARG-sparing effect: 143%
